# Assay results: US6914045B2, “Glycopeptide antibiotics” (Wyeth Holdings Corporation, priority 2001, dated 2005)
# Key:
# Assay in all cases: in vitro antibacterial evaluation, MIC by broth dilution
# Type in all cases: cell-based
# Enterococcus sp. = details: broth dilution, 18 hours at 35° C.
# Method in brief: (§1)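 MIC, the lowest antibiotic concentration preventing growth, was read across 64-0.06 μg/mL with 5×10^5 CFU/mL inoculum. Method followed NCCLS M7-A2 broth dilution using Mueller-Hinton II; Gram-positive strains covered recent methicillin-, penicillin- and/or vancomycin-resistant clinical isolates.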
# Staphylococcus sp. = details: broth dilution, 18 hours at 35° C.; for MIC Staphylococcus aureus (GC 1131): strain GC 1131
# Method in brief: as §1
# Streptococcus sp. = details: broth dilution, 18 hours at 35° C.
# Method in brief: as §1
# Escherichia coli = details: 18 hours at 35° C.
compound,measurement,setting,value
CC(c1ccccc1)C1NC(=O)CNC(=O)C(CO)NC(=O)C(C(O)C2CNC(=N)N2C2OC(CO)C(O)C(O)C2O)NC(=O)C(C(O)C2CNC(=N)N2)NC(=O)C(Cc2ccc(OC3OC(CO)C(OC4OC5COC(c6ccc(C(=O)c7ccc(I)cc7)cc6)OC5C(O)C4O)C(O)C3O)cc2)NC1=O (centres unmarked) [Example 186],MIC Enterococcus avium (GC 4558),Enterococcus sp.,2 µg/mL
same,MIC Enterococcus faecalis (ATCC 29212),Enterococcus sp.,2 µg/mL
same,MIC Enterococcus faecalis (GC 2242),Enterococcus sp.,2 µg/mL
same,MIC Enterococcus faecalis (GC 2691),Enterococcus sp.,2 µg/mL
same,MIC Enterococcus faecalis (GC 3059),Enterococcus sp.,2 µg/mL
same,MIC Enterococcus faecalis (GC 4552),Enterococcus sp.,2 µg/mL
same,MIC Enterococcus faecalis (GC 4553),Enterococcus sp.,2 µg/mL
same,MIC Enterococcus faecalis (GC 4554),Enterococcus sp.,2 µg/mL
same,MIC Enterococcus faecalis (GC 6189),Enterococcus sp.,1 µg/mL
same,MIC Enterococcus faecium (GC 2243),Enterococcus sp.,2 µg/mL
same,MIC Enterococcus faecium (GC 4556),Enterococcus sp.,2 µg/mL
same,MIC Enterococcus faecium (GC 4557),Enterococcus sp.,2 µg/mL
same,MIC Enterococcus faecalis (ATCC 29212),"Enterococcus sp.; inoculum 5×10^5 CFU/mL, strain ATCC 29212",2 µg/mL
same,MIC Enterococcus faecalis (GC 2242),"Enterococcus sp.; inoculum 5×10^5 CFU/mL, strain GC 2242",2 µg/mL
same,MIC Enterococcus faecium (GC 2243),"Enterococcus sp.; inoculum 5×10^5 CFU/mL, strain GC 2243",2 µg/mL
same,MIC Enterococcus faecalis (GC 2691),"Enterococcus sp.; inoculum 5×10^5 CFU/mL, strain GC 2691",2 µg/mL
same,MIC Enterococcus faecalis (GC 3059),"Enterococcus sp.; inoculum 5×10^5 CFU/mL, strain GC 3059",2 µg/mL
same,MIC Enterococcus faecalis (GC 4552),"Enterococcus sp.; inoculum 5×10^5 CFU/mL, strain GC 4552",2 µg/mL
same,MIC Enterococcus faecalis (GC 4553),"Enterococcus sp.; inoculum 5×10^5 CFU/mL, strain GC 4553",2 µg/mL
same,MIC Enterococcus faecalis (GC 4554),"Enterococcus sp.; inoculum 5×10^5 CFU/mL, strain GC 4554",2 µg/mL
same,MIC Enterococcus faecium (GC 4556),"Enterococcus sp.; inoculum 5×10^5 CFU/mL, strain GC 4556",2 µg/mL
same,MIC Enterococcus faecium (GC 4557),"Enterococcus sp.; inoculum 5×10^5 CFU/mL, strain GC 4557",2 µg/mL
same,MIC Enterococcus avium (GC 4558),"Enterococcus sp.; inoculum 5×10^5 CFU/mL, strain GC 4558",2 µg/mL
same,MIC Enterococcus faecalis (GC 6189),"Enterococcus sp.; inoculum 5×10^5 CFU/mL, strain GC 6189",1 µg/mL
same,MIC Staphylococcus aureus (GC 1131),Staphylococcus sp.; inoculum 5×10^5 CFU/mL,2 µg/mL
same,MIC Staphylococcus aureus (ATCC 29213),Staphylococcus sp.; strain ATCC 29213,2 µg/mL
same,MIC Staphylococcus aureus (GC 1131),Staphylococcus sp.,2 µg/mL
same,MIC Staphylococcus aureus (GC 3051),Staphylococcus sp.; strain GC 3051,2 µg/mL
same,MIC Staphylococcus aureus (GC 3053),Staphylococcus sp.; strain GC 3053,2 µg/mL
same,MIC Staphylococcus aureus (GC 4541),Staphylococcus sp.; strain GC 4541,2 µg/mL
same,MIC Staphylococcus aureus (GC 4542),Staphylococcus sp.; strain GC 4542,1 µg/mL
same,MIC Staphylococcus aureus-SMITH (GC 4543),Staphylococcus sp.; strain GC 4543,2 µg/mL
same,MIC Staphylococcus aureus (GC 4544),Staphylococcus sp.; strain GC 4544,2 µg/mL
same,MIC Staphylococcus aureus (GC 4545),Staphylococcus sp.; strain GC 4545,2 µg/mL
same,MIC Staphylococcus haemolyticus (GC 4546),Staphylococcus sp.; strain GC 4546,1 µg/mL
same,MIC Coagulase Negative Staphylococcus (GC 4547),Staphylococcus sp.; strain GC 4547,2 µg/mL
same,MIC Coagulase Negative Staphylococcus (GC 4548),Staphylococcus sp.; strain GC 4548,1 µg/mL
same,MIC Coagulase Negative Staphylococcus (GC 4549),Staphylococcus sp.; strain GC 4549,1 µg/mL
same,MIC Coagulase Negative Staphylococcus (GC 4551),Staphylococcus sp.; strain GC 4551,2 µg/mL
same,MIC Coagulase Negative Staphylococcus (GC 6257),Staphylococcus sp.; strain GC 6257,0.5 µg/mL
same,MIC Streptococcus agalactiae (GC 4564),Streptococcus sp.,<0.06 µg/mL
same,MIC Streptococcus pneumoniae (ATCC 6301),Streptococcus sp.,<0.06 µg/mL
same,MIC Streptococcus pneumoniae (GC 1894),Streptococcus sp.,<0.06 µg/mL
same,MIC Streptococcus pneumoniae (GC 4565),Streptococcus sp.,<0.06 µg/mL
same,MIC Streptococcus pyogenes (GC 4563),Streptococcus sp.,0.25 µg/mL
same,MIC Streptococcus pneumoniae (ATCC 6301),"Streptococcus sp.; inoculum 5×10^5 CFU/mL, strain ATCC 6301",<0.06 µg/mL
same,MIC Streptococcus pneumoniae (GC 1894),"Streptococcus sp.; inoculum 5×10^5 CFU/mL, strain GC 1894",<0.06 µg/mL
same,MIC Streptococcus pyogenes (GC 4563),"Streptococcus sp.; inoculum 5×10^5 CFU/mL, strain GC 4563",0.25 µg/mL
same,MIC Streptococcus agalactiae (GC 4564),"Streptococcus sp.; inoculum 5×10^5 CFU/mL, strain GC 4564",<0.06 µg/mL
same,MIC Streptococcus pneumoniae (GC 4565),"Streptococcus sp.; inoculum 5×10^5 CFU/mL, strain GC 4565",<0.06 µg/mL
same,MIC Escherichia coli (ATCC 25922),Escherichia coli,64 µg/mL
same,MIC Escherichia coli (GC 4559),Escherichia coli,64 µg/mL
same,MIC Escherichia coli (GC 4560),Escherichia coli,4 µg/mL
